From patent US11566017B2, “Dihydroquinazolinone compound or pharmacologically acceptable salt, and cell growth inhibitor” (RIKEN, priority 2017, dated 2023) come the findings set out here.

Experiment [1] addresses T1, tankyrase 2 (TNKS2) (Homo sapiens, UniProt Q9H2K2).
T1 construct: tankyrase 2 (613-1,116aa, ANK5+SAM+PARP); made in house; host or cells: cell-free protein expression system
The experiment can be described thus: Tankyrase inhibitory activity test (ELISA, auto-poly(ADP-ribosyl)ation), tankyrase 2. It counts as biochemical. The following applies: Flag tagged tankyrase 2 (613-1,116aa, ANK5+SAM+PARP); read-out: TNKS2 (inhibitory activity against tankyrase 2, IC50). The method, then: (§1) The enzymatic activity of tankyrase 1 and the enzymatic activity of tankyrase 2 were measured by the ELISA method based on assessment of auto-poly(ADP-ribosyl)ation to evaluate the tankyrase inhibitory activity of the compound prepared in each of Examples (test compound) (inhibitory activity against tankyrase 1 (TNKS1) and inhibitory activity against tankyrase 2 (TNKS2)). First, Flag tagged tankyrase 1 (1,024-1,327aa, SAM+PARP) and tankyrase 2 (613-1,116aa, ANK5+SAM+PARP) were synthesized with a cell-free protein expression system, and diluted with a Tris buffer solution (50 mM Tris-HCl (pH 8.0), 150 mM NaCl, 10% glycerol). 50 μL of the diluted tankyrase 1 or tankyrase 2 was added to a plate with an anti-FLAG M2 monoclonal antibody immobilized thereon (Anti-FLAG High-Sensitivity M2-Coated Plate) (Sigma-Aldrich), and the plate was left standing overnight at 4° C. Thereafter, the plate was washed four times with a PBS (PBST) buffer containing 0.1% Triton X-100. For Example 84, the Anti-FLAG High-Sensitivity M2-Coated Plate was replaced by an immunoplate (Thermo Fisher Scientific), tankyrase 1 or tankyrase 2 was immobilized on the immunoplate, and the immunoplate was then blocked with Blocking One (nacalai tesque), then washed with a PBS (PBST) buffer, and used as the following plate.
(§2) Subsequently, the test compound diluted with an assay buffer (50 mM Tris-HCl (pH 8.0), 4 mM MgCl2, 0.2 mM DTT) (DMSO was used as a control) was added to each well of the plate, and the plate was left standing at room temperature for 10 minutes. Thereafter, a biotin-labeled NAD solution (225 μM NAD, 25 μM 6-Biotin-17-NAD (Travigen, Inc.)) was added and mixed as a donor substrate, and the mixture was reacted at 30° C. for 45 minutes. To blank wells was added distilled water instead of the biotin-labeled NAD solution. After the reaction, the plate was washed with a PBST buffer four times. Thereafter, HRP (horseradish peroxidase)-labeled streptavidin (Travigen, Inc.) was diluted with a PBS buffer by 1,000 times, and added to each well, and the mixture was reacted at room temperature for 20 minutes. The plate was washed with a PBST buffer four times, a chemiluminescent substrate solution TACS-Sapphire (Travigen, Inc.) was then added to each well, the mixture was reacted at room temperature for 20 minutes, and the chemiluminescence intensity was measured using a chemiluminescence measuring apparatus. For Example 84, the streptavidin was diluted by 5,000 times, the chemiluminescent substrate solution TACS-Sapphire was replaced by an ELISA POD substrate TMB solution easy (nacalai tesque), the mixture was reacted at room temperature for 30 minutes, and the chemiluminescence intensity was measured using a chemiluminescence measuring apparatus.
(§3) The residual enzymatic activity in the presence of the test compound was determined from the following expression. On the basis of the residual enzymatic activity at each of multiple concentrations of the test compound, the enzyme inhibitory activity was calculated in terms of a 50%-inhibition concentration (IC50 value) using data analysis software Origin (LightStone Corp.). Residual activity (%)={(chemiluminescence intensity with test compound added)−(chemiluminescence intensity of blank)}/{(chemiluminescence intensity of control)−(chemiluminescence intensity of blank)}
(In general: ELISA stands for enzyme-linked immunosorbent assay.)

Experiment [2] has as its target T2, tankyrase 1 (TNKS1) (Homo sapiens, UniProt O95271).
T2 construct: tankyrase 1 (1,024-1,327aa, SAM+PARP); made in house; host or cells: cell-free protein expression system
The experiment can be described thus: Tankyrase inhibitory activity test (ELISA, auto-poly(ADP-ribosyl)ation), tankyrase 1. To be noted: Flag tagged tankyrase 1 (1,024-1,327aa, SAM+PARP); read-out: TNKS1 (inhibitory activity against tankyrase 1, IC50). The experiment is classed as biochemical. Here is the method: as §1, §2, §3

For experiment [3], the system named is human colorectal cancer cell line COLO-320DM. The experiment can be described thus: Cell proliferation inhibitory activity test (Celltiter-Glo). The experiment is classed as cell-based. The following applies: COLO-320DM cells, 96 hours. Here is the method:
The cell proliferation inhibitory activity of the compound, which had been prepared in each of Examples, against the human colorectal cancer cell line COLO-320DM was evaluated by Celltiter-Glo Luminescent Cell Viability Assay (Promega Corporation; G7573). COLO-320DM cells were cultured in RPMI-1640 medium containing 2 mM glutamine (Wako Pure Chemical Industries, Ltd; 189-02025) supplemented with 10% fetal bovine serum. The cultured cells were washed with PBS, and then dissociated with trypsin/EDTA, and a cell solution with 3×10^4 cells/mL was prepared.
Subsequently, the cell solution was seeded in a 96-well microplate (Thermo/Nunc Company; 136101) in an amount of 70 μL per well, and cultured overnight under the condition of 37° C. and 5% CO2. Next day, a test compound solution obtained by diluting the test compound (DMSO solution) with a cell culture medium (final concentration of DMSO was 1%) was added in an amount of 10 μL per well, and the mixture was reacted under the condition of 37° C. and 5% CO2 for 96 hours (a 1% DMSO solution was used as a control). Thereafter, a Celltiter-GloLuminescent Cell Viability Assay reagent (Promega Corporation; G7573) was added in an amount of 80 μL per well, the mixture was stirred with a shaker for 2 minutes while light was blocked with an aluminum foil, and the mixture was incubated at room temperature for 10 minutes.
Thereafter, a luminescence signal was measured with a luminometer (Biotech Company; Synergy). The ratio of cell proliferation in each compound addition group to cell proliferation in a control group containing no test compound solution, where cell proliferation in the control group is 100%, was calculated and the value of a compound concentration necessary for suppressing the amount of residual cells to 50% of that in the control (GI50) was calculated as the cytostatic activity. […] An unevaluated test compound was designated as “NT”.
A general note: ATP-based viability assays read luminescence as a measure of living cells.

T2 sequence (O95271 1024-1327): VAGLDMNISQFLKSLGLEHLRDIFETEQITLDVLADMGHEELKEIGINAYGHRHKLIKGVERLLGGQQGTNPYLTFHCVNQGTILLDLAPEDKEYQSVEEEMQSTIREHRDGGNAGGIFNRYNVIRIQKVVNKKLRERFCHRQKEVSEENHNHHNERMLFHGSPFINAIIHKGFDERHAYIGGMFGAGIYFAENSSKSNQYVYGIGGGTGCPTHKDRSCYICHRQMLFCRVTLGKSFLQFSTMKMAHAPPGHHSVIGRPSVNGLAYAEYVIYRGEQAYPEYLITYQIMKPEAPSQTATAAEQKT

Take `CN1c2ccccc2C(=O)NC1c1c[nH]nc1-c1ccc(-c2ccnc3ccccc23)cc1` (stereo not drawn) [Example 40, 1-Methyl-2-[3-(4-quinolin-4-ylphenyl)-1H-pyrazol-4-yl]-2,3-dihydroquinazolin-4-one]: the IC50 in experiment [1] and in experiment [2] was 20 to 50 nM in each case. The concentration for 50% growth inhibition (GI50) – broadly, the concentration at which growth is held to half of that of the control – in experiment [3] was at least 10000 nM.

On to `CN1c2ccccc2C(=O)NC1c1c[nH]nc1-c1ccc(-c2ccc(N3CCNCC3)cc2)cc1` (stereo not drawn) [Example 41], for which the IC50 (in general, the point on the concentration scale where inhibition reaches its midpoint) is 5 to 20 nM in experiment [1] and 20 to 50 nM in experiment [2]. For the same compound, in experiment [3], the GI50 fell in the range of 1000 to 10000 nM.

Take `CN1c2ccccc2C(=O)NC1c1c[nH]nc1-c1cccc(Cl)c1` (stereo not drawn) [Example 42, 2-[3-(3-Chlorophenyl)-1H-pyrazol-4-yl]-1-methyl-2,3-dihydroquinazolin-4-one]: the IC50 in experiment [1] was in the range of 5 to 20 nM; in experiment [2] it was 20 to 50 nM. For the same compound, in experiment [3], the GI50 fell in the range of 1000 to 10000 nM.

As for `CN1c2ccccc2C(=O)NC1c1c[nH]nc1-c1ccc(Br)c(F)c1` (stereo not drawn) [Example 43, 2-[3-(4-Bromo-3-fluorophenyl)-1H-pyrazol-4-yl]-1-methyl-2,3-dihydroquinazolin-4-one], the IC50 in experiment [1] and in experiment [2] was below 5 nM in each case. In experiment [3], the GI50 is at least 10000 nM.

For `CN1CCN(c2ccc(-c3ccc(-c4n[nH]cc4C4NC(=O)c5ccccc5N4C)cc3F)cc2)CC1` (stereo not drawn) [Example 44, 2-[5-[3-Fluoro-4-[4-(4-methylpiperazin-1-yl)phenyl]phenyl]-1H-pyrazol-4-yl]-1-methyl-2,3-dihydroquinazolin-4-one], the IC50 in experiment [1] and in experiment [2] was 5 to 20 nM throughout. Further, the GI50 in experiment [3] was in the range of 1000 to 10000 nM.

Consider `CN1c2ccccc2C(=O)NC1c1c[nH]nc1-c1ccc(OCc2ccccc2)c(F)c1` (stereo not drawn) [Example 45, 2-[3-(3-Fluoro-4-phenylmethoxyphenyl)-1H-pyrazol-4-yl]-1-methyl-2,3-dihydroquinazolin-4-one], for which the IC50 in experiment [1] and in experiment [2] was below 5 nM in each case. In addition, the GI50 in experiment [3] fell in the range of 1000 to 10000 nM.

Take `CCOc1ccc(-c2n[nH]cc2C2NC(=O)c3ccccc3N2C)cc1` (stereo not drawn) [Example 46, 2-[5-(4-Ethoxyphenyl)-1H-pyrazol-4-yl]-1-methyl-2,3-dihydroquinazolin-4-one]: the IC50 in experiment [1] and in experiment [2] was below 5 nM each time. For the same compound, in experiment [3], the GI50 lay in the range of 1000 to 10000 nM.

Take `CN1c2ccccc2C(=O)NC1c1c[nH]nc1-c1cc(F)cc(F)c1` (stereo not drawn) [Example 47, 2-[3-(3,5-Difluorophenyl)-1H-pyrazol-4-yl]-1-methyl-2,3-dihydroquinazolin-4-one]: the 50% inhibitory concentration (IC50) in experiment [1] fell in the range of 5 to 20 nM; in experiment [2], 20 to 50 nM. Also, the 50% growth inhibitory concentration (GI50) in experiment [3] is at least 10000 nM.

As to `CN1c2ccccc2C(=O)NC1c1c[nH]nc1-c1ccc(OC(F)(F)F)cc1` (stereo not drawn) [Example 48, 1-Methyl-2-[3-(4-(trifluoromethoxy)phenyl)-1H-pyrazol-4-yl]-2,3-dihydroquinazolin-4-one], the IC50 in experiment [1] was in the range of 5 to 20 nM; in experiment [2], 20 to 50 nM. In addition, the GI50 in experiment [3] lay within 1000 to 10000 nM.

As to `COc1c(F)cc(-c2n[nH]cc2C2NC(=O)c3ccccc3N2C)cc1F` (stereo not drawn) [Example 49, 2-[5-(3,5-Difluoro-4-methoxyphenyl)-1H-pyrazol-4-yl]-1-methyl-2,3-dihydroquinazolin-4-one], the IC50 in experiment [1] was in the range of 5 to 20 nM; in experiment [2] it was 20 to 50 nM. Besides, the GI50 in experiment [3] is at least 10000 nM.

As for `COc1ccc(-c2[nH]ncc2C2NC(=O)c3cccc(C)c3N2)cc1` (stereo not drawn) [Example 50, 2-[5-(4-Methoxyphenyl)-1H-pyrazol-4-yl]-8-methyl-2,3-dihydro-1H-quinazolin-4-one], the IC50 in experiment [1] and in experiment [2] was 5 to 20 nM each time. For the same compound, the GI50 in experiment [3] is at least 10000 nM.

Consider `Cc1cccc2c1NC(c1cn[nH]c1-c1ccc(-c3ccc(N4CCN(C)CC4)cc3)cc1)NC2=O` (stereo not drawn) [Example 51, 8-Methyl-2-[5-[4-[4-(4-methylpiperazin-1-yl)phenyl]phenyl]-1H-pyrazol-4-yl]-2,3-dihydro-1H-quinazolin-4-one], for which the IC50 in experiment [1] and in experiment [2] was 20 to 50 nM in each case. Further, the GI50 in experiment [3] lay in the range of 1000 to 10000 nM.

For the compound `COc1ccc(-c2n[nH]cc2C2NC(=O)c3cccc4c3N2CC4)cc1` (stereo not drawn) [Example 52, 11-[5-(4-Methoxyphenyl)-1H-pyrazol-4-yl]-1,10-diazatricyclo[6.3.1.0^4,12]dodeca-4(12),5,7-trien-9-one], the values for the IC50 in experiment [1] and in experiment [2] were 5 to 20 nM and below 5 nM, respectively. Besides, the GI50 in experiment [3] was at least 10000 nM.

`COc1ccc(-c2n[nH]cc2C2NC(=O)c3ccc(C)cc3N2C)cc1` (stereo not drawn) [Example 53, 2-[5-(4-Methoxyphenyl)-1H-pyrazol-4-yl]-1,7-dimethyl-2,3-dihydroquinazolin-4-one]: the half-maximal inhibitory concentration (IC50) in experiment [1] and in experiment [2] was 5 to 20 nM in each case. The GI50 in experiment [3] was at least 10000 nM.

For the compound `Cc1cccc2c1NC(c1c[nH]nc1-c1ccc(OCC(F)(F)F)cc1)NC2=O` (stereo not drawn) [Example 54, 8-Methyl-2-[3-(4-(2,2,2-trifluoroethoxy)phenyl)-1H-pyrazol-4-yl]-2,3-dihydro-1H-quinazolin-4-one], the half-inhibitory concentration (IC50) was below 5 nM in experiment [1] and 5 to 20 nM in experiment [2]. In experiment [3], the GI50 was in the range of 1000 to 10000 nM.

As to `CCOc1ccc(-c2n[nH]cc2C2NC(=O)c3cccc(C)c3N2)cc1` (stereo not drawn) [Example 55, 2-[5-(4-Ethoxyphenyl)-1H-pyrazol-4-yl]-8-methyl-2,3-dihydro-1H-quinazolin-4-one], the IC50 was below 5 nM in experiment [1] and 5 to 20 nM in experiment [2]. The GI50 in experiment [3] was in the range of 1000 to 10000 nM.

As to `COc1ccc(-c2n[nH]cc2C2NC(=O)c3cccc(C)c3N2)cc1F` (stereo not drawn) [Example 56, 2-[5-(3-Fluoro-4-methoxyphenyl)-1H-pyrazol-4-yl]-8-methyl-2,3-dihydro-1H-quinazolin-4-one], the IC50 in experiment [1] and in experiment [2] was 5 to 20 nM each time. Also, the GI50 in experiment [3] is at least 10000 nM.

For the compound `CCc1cccc2c1NC(c1c[nH]nc1-c1ccc(OC)cc1)NC2=O` (stereo not drawn) [Example 57, 8-Ethyl-2-[3-(4-methoxyphenyl)-1H-pyrazol-4-yl]-2,3-dihydro-1H-quinazolin-4-one], the IC50 was below 5 nM in experiment [1] and 5 to 20 nM in experiment [2]. For the same compound, the GI50 in experiment [3] fell in the range of 1000 to 10000 nM.

For `COc1ccc(-c2n[nH]nc2C2NC(=O)c3ccccc3N2C)cc1` (stereo not drawn) [Example 58, 2-[5-(4-Methoxyphenyl)-2H-1,2,3-triazol-4-yl]-1-methyl-2,3-dihydroquinazolin-4-one], the IC50 was below 5 nM in experiment [1] and 5 to 20 nM in experiment [2]. In experiment [3], the concentration for 50% growth inhibition (GI50) was 1000 to 10000 nM.
